Source: patent US20040106632A1, “Salt of thiazolidinedione and its polymorphs as antidiabetic agents and method for obtaining them” (priority 2001, published 2004)

Experiments:
[1] = stability (solid and aqueous solution); assay type: physicochemical
aqueous solubility = assay type: physicochemical
oral absorption profile = assay type: in vivo; settings: compared with the free base
[2] = hygroscopicity / solvate formation on purification; assay type: physicochemical

| SMILES | stability [1] | solubility (in words) (aqueous solubility; aqueous) | oral absorption profile (oral absorption profile) | hygroscopicity or formation of solvates [2] | aqueous solubility (aqueous solubility; water) |
| --- | --- | --- | --- | --- | --- |
| COc1cc(N(C)CCOc2ccc(CC3SC(=O)NC3=O)cc2)ncn1 (stereo not drawn) [Compound I, 5-(4-{2-[(6-methoxypyrimydin-4-yl)-methyl-amino]-ethoxyl}-benzyl)-thiazolidin-2,4-dione] | problems of stability | problems of stability and solubility | – | – | – |
| COc1cc(N(C)CCOc2ccc(CC3SC(=O)NC3=O)cc2)ncn1.[Na] (stereo not drawn) [Sodium Salt, sodium salt of 5-(4-{2-[(6-methoxy-pyrimydin-4-yl)-methyl-amino]-ethoxy}-benzyl)-thiazolidin-2,4-dione] | good stability | – | better oral absorption profile than the free base | without problems of hygroscopicity or formation of solvates | higher than 1 mg/ml |
